ChEMBL document CHEMBL1201862, “PubChem BioAssay data set” (2004)
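Five compound concentrations were applied to cells in 96-well plates for 48 hours; endpoints were derived by simple linear interpolation of the resulting dose-response curve. At the GI50, growth is halved.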 Active and inactive are the calls of the source. Rule as the data show it: active = GI50 up to about 1.1 µM and inactive = higher.

Columns and labels:
Assay in all cases: NCI-60 cell line screen, 48 h
CAKI-1 = test system: CAKI-1
ACHN = test system: ACHN
SNB-19 = test system: SNB-19
OVCAR-8 = test system: OVCAR-8
LOX IMVI = test system: LOX IMVI
DU-145 = test system: DU-145
A549 = test system: A549
Hs-578T = test system: Hs-578T
SF-539 = test system: SF-539
NCI-H460 = test system: NCI-H460
NCI/ADR-RES = test system: NCI/ADR-RES
SN12C = test system: SN12C
COLO 205 = test system: COLO 205
786-0 = test system: 786-0
UACC-257 = test system: UACC-257
MCF7 = test system: MCF7
M14 = test system: M14
HL-60 = test system: HL-60
SK-MEL-28 = test system: SK-MEL-28
MDA-MB-231 = test system: MDA-MB-231

Measured: GI50

CCn1sc2ccccc2c1=O
inactive: CAKI-1 3.43 µM | ACHN 7.62 µM | SNB-19 11.3 µM | OVCAR-8 9.12 µM | LOX IMVI 2.61 µM | DU-145 20.4 µM | A549 16.1 µM | Hs-578T 16.4 µM | SF-539 13.5 µM | NCI-H460 32.1 µM | NCI/ADR-RES 18.2 µM | SN12C 5.32 µM | COLO 205 9.55 µM | 786-0 2.34 µM | UACC-257 14.8 µM | MCF7 8.77 µM | M14 4.97 µM | HL-60 3.78 µM | SK-MEL-28 18.1 µM | MDA-MB-231 9.57 µM
